Measured values as given in patent US20260306640A1, “TECHNOLOGIES TARGETING CELL STATES” (Auron Therapeutics, Inc., priority 2023, published 2026).

What was measured:
Type in all cases: cell-based
KAT2A [1] = target: T1, KAT2A (Homo sapiens, UniProt Q92830); experiment: KAT2A degradation, Western Blot (Jess), NCI-H1048 cells; design: degrader, Western blot (Jess); conditions: NCI-H1048 cells, KAT2A, 24 h, Western Blot, vs DMSO; read-out: KAT2A NCI-H1048 DC50
Procedure, shortened: (§1)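 DC50 came from protein loss relative to DMSO, measured by Jess capillary immunoblot of RIPA lysates with chemiluminescence read-out. Before lysis, NCI-H1048 cells in 5% FBS HITES medium were exposed to compound for 24 h at 37° C.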

MOLM-13 cells = experiment: Cell growth inhibition, AML cell line MOLM-13 (CyQuant, day 7); conditions: Homo sapiens, 168 h; MOLM-13, day 7, CyQuant; read-out: MOLM13 GI50
Excerpt: Among other things, provided technologies are useful for treating various diseases, disorders, or conditions. For example, in some embodiments, provided technologies are useful for treating cancer as confirmed in the present Example. […] In some embodiments, provided technologies can inhibit cell proliferation. In some embodiments, the present disclosure provides technologies for assessing various technologies, e.g., compounds, compositions, or methods. Among other things, the present Example provides technologies, e.g., cell growth inhibition assay, for assessing various technologies. […] In some embodiments, the following cell growth inhibition methods are utilized to assess provided technologies.
AML: AML cell line MOLM-13 cells were cultured in RPMI+15% FBS and were plated at 500 cells/well in 100 uL media in a U-bottom 96-well plate. Compounds were dilute to 3×final in full media and 50 uL were added to corresponding wells. Compound and media were replenished on days 2 and 5. On day 7, cells were transferred to a 96-well black bottom plate and CyQuant was performed per manufacturer's instructions.
In some assessments, for cell growth inhibition, cells, e.g., MOLM13, NCI-H1048, and LASCPC-01 cells, were counted using a hemocytometer or automated cell counting in triplicates. In some assessments, proliferation in NEPC organoids as measured with Cell Titer Glo reagent (Promega). Growth inhibition was determined relative to vehicle control.

KAT2B = KAT2B (Homo sapiens, UniProt Q92831); experiment: KAT2B degradation, Western Blot (Jess), NCI-H1048 cells; design: degrader, Western blot (Jess); conditions: NCI-H1048 cells, KAT2B, 24 h, Western Blot, vs DMSO; read-out: KAT2B NCI-H1048 DC50
Sequence of KAT2B (Q92831 whole entry): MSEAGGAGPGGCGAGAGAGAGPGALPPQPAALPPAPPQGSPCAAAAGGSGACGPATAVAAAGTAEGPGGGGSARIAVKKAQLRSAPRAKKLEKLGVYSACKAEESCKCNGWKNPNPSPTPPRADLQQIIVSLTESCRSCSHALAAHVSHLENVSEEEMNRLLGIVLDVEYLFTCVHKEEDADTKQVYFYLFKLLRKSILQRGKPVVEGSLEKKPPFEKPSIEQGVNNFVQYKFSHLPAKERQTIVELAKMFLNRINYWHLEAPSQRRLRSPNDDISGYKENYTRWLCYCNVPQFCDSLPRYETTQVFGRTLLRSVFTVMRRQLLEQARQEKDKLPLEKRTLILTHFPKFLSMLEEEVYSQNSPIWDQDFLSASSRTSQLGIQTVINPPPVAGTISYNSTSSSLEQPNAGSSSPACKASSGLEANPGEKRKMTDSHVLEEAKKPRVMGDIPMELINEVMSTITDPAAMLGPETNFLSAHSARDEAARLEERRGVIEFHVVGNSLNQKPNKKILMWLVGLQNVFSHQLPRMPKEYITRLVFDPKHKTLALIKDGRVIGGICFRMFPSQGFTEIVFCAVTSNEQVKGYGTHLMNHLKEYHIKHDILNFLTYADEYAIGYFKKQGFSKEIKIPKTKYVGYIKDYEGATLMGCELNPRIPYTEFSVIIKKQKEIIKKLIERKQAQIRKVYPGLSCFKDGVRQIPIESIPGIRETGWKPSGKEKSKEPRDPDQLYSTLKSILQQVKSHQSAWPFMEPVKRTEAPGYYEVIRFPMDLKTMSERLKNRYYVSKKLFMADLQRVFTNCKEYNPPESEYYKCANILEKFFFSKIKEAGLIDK
Procedure, shortened: as §1

KAT2A [2] = target: T1, KAT2A; experiment: KAT2A degradation, Western Blot (Jess), MOLM-13 cells; design: degrader, Western blot; conditions: MOLM-13 cells, KAT2A, 24 h, Western Blot, vs DMSO; read-out: KAT2A MOLM-13 DC50
Procedure, shortened: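 MOLM-13 cells in RPMI 1640/20% FBS were treated with compound for 24 h at 37 °C. RIPA lysates (4 μg) were run on a capillary Western (Jess) with anti-KAT2A antibody and chemiluminescent detection. DC50 comes from percent protein reduction versus DMSO control.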

T1 sequence (Q92830 whole entry): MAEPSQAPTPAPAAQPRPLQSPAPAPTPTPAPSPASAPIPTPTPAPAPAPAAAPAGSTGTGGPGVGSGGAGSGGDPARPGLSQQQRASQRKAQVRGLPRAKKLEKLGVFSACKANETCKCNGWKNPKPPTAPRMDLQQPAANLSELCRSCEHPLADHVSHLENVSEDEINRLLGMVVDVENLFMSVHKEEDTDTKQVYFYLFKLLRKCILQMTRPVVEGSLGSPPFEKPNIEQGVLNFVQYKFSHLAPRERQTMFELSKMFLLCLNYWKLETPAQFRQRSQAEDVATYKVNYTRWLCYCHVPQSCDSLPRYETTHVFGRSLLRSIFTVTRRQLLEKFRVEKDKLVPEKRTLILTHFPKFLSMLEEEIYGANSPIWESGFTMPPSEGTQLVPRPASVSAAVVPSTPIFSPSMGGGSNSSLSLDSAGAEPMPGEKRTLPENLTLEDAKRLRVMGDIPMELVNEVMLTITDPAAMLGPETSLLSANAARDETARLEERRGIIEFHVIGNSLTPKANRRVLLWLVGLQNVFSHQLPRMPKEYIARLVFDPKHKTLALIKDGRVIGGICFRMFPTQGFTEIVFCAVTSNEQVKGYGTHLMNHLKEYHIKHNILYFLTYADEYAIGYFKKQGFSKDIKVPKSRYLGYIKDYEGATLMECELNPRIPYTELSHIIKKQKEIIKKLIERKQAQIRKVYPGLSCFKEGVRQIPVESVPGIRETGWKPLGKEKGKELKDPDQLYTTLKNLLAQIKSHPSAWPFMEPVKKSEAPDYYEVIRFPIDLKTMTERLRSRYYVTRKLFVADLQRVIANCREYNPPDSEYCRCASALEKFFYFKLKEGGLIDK

SMILES	DC50 (KAT2A [1]) [nM]	GI50 (MOLM-13 cells) [nM]	DC50 (KAT2B) [nM]	DC50 (KAT2A [2]) [nM]
CN1C[C@H](Nc2cnn(C)c(=O)c2Cl)C[C@H](c2ccc(C(=O)N3CCC4(CC3)CCN(c3ccc5c(C6CCC(=O)NC6=O)nn(C)c5c3)CC4)cc2)C1 (stereo partly drawn) [Compound 208, 3-[6-[3-[4-[(3R,5R)-5-[(5-chloro-1-methyl-6-oxo-pyridazin-4-yl)amino]-1-methyl-3-piperidyl]benzoyl]-3,9-diazaspiro[5.5]undecan-9-yl]-1-methyl-indazol-3-yl]piperidine-2,6-dione]	< 1	0.3	< 1	–
Cc1cc(N2CCC3(CCN(C(=O)c4ccc([C@H]5C[C@@H](Nc6cnn(C)c(=O)c6Br)CN(C)C5)cc4)CC3)CC2)c(F)cc1C1CCC(=O)NC1=O (stereo partly drawn) [Compound 243]	1 to 30	> 100	> 30	–
CN1C[C@H](Nc2cnn(C)c(=O)c2Br)C[C@H](c2ccc(C(=O)N3CCC4(CC3)CCN(c3ccc(C5CCC(=O)NC5=O)cc3)CC4)cc2)C1 (single isomer, unassigned) [Compound 240]	< 1	3.9	< 1	–
CN1C[C@H](Nc2cnn(C)c(=O)c2Cl)C[C@H](c2ccc(C(=O)N3CCC4(CCC(c5ccc(C6CCC(=O)NC6=O)cc5F)CC4)CC3)cc2)C1 (stereo partly drawn) [Compound 231]	< 1	7.3	1 to 30	–
CN1CC(Nc2cnn(C)c(=O)c2Br)CC(c2ccc(C(=O)N3CCC4(CC3)CCN(c3ccc(C5CCC(=O)NC5=O)cc3)CC4)cc2)C1 (stereo not drawn) [Compound 437]	–	0.3	–	–
Cc1c(N[C@@H]2C[C@H](c3ccc(C(=O)N4CCC5(CC4)CCN(c4ccc(C6CCC(=O)NC6=O)c(F)c4)CC5)cc3)CN(C)C2)cnn(C)c1=O (stereo partly drawn) [Compound 229, 3-[4-[3-[4-[(3R,5R)-5-[(1,5-dimethyl-6-oxo-pyridazin-4-yl)amino]-1-methyl-3-piperidyl]benzoyl]-3,9-diazaspiro[5.5]undecan-9-yl]-2-fluoro-phenyl]piperidine-2,6-dione]	< 1	0.7	< 1	–
Cc1cc(N2CCC3(CCN(C(=O)c4ccc([C@H]5C[C@@H](Nc6cnn(C)c(=O)c6Br)CN(C)C5)cc4)CC3)CC2)ccc1C1CCC(=O)NC1=O (stereo partly drawn) [Compound 167]	< 1	4.8	< 1	< 1
CN1C[C@H](Nc2cnn(C)c(=O)c2Br)C[C@H](c2ccc(C(=O)N3CCC4(CC3)CCN(c3ccc(C5CCC(=O)NC5=O)c(F)c3)CC4)cc2)C1 (stereo partly drawn) [Compound 157, 3-[4-[3-[4-[(3R,5R)-5-[(5-bromo-1-methyl-6-oxo-pyridazin-4-yl)amino]-1-methyl-3-piperidyl]benzoyl]-3,9-diazaspiro[5.5]undecan-9-yl]-2-fluoro-phenyl]piperidine-2,6-dione]	< 1	0.9	< 1	< 1
CN1C[C@H](Nc2cnn(C)c(=O)c2Br)C[C@H](c2ccc(CN3CCN(c4cccc([C@H]5CCC(=O)NC5=O)c4)CC3)cc2)C1 [Compound 84, 3-[3-[4-[[4-[(3R,5R)-5-[(5-bromo-1-methyl-6-oxo-pyridazin-4-yl)amino]-1-methyl-3-piperidyl]phenyl]methyl]piperazin-1-yl]phenyl]piperidine-2,6-dione]	< 1	1.1	1 to 30	< 1
CN1C[C@H](Nc2cnn(C)c(=O)c2Cl)C[C@H](c2ccc(C(=O)N3CCC4(CC3)CCN(c3ccc(C5CCC(=O)NC5=O)nc3)CC4)cc2)C1 (stereo partly drawn) [Compound 233]	< 1	5.5	1 to 30	–
CN1C[C@H](Nc2cnn(C)c(=O)c2Br)C[C@H](c2ccc(C(=O)N3CCC4(CC3)CCN(c3ccc(OC5CCC(=O)NC5=O)cc3)CC4)cc2)C1 (stereo partly drawn) [Compound 363]	< 1	5.7	1 to 30	–
CN1C[C@H](Nc2cnn(C)c(=O)c2Cl)C[C@H](c2ccc(C(=O)N3CCC4(CC3)CCN(c3ccc(OC5CCC(=O)NC5=O)cc3)CC4)cc2)C1 (stereo partly drawn) [Compound 362]	< 1	33.3	1 to 30	–
CN1C[C@H](Nc2cnn(C)c(=O)c2Br)C[C@H](c2ccc(COc3ccc4c(c3)C(=O)N(C3CCC(=O)NC3=O)C4=O)cc2)C1 (stereo partly drawn) [Compound 39]	< 1	5.6	1 to 30	< 1
Cc1cc(N2CCC3(CCN(C(=O)c4ccc([C@H]5C[C@@H](Nc6cnn(C)c(=O)c6C)CN(C)C5)cc4)CC3)CC2)ccc1C1CCC(=O)NC1=O (stereo partly drawn) [Compound 219]	< 1	5.9	< 1	–
CN1C[C@H](Nc2cnn(C)c(=O)c2Br)C[C@H](c2ccc(C(=O)N3CCC(CN4CCN(c5ccc6c(c5)C(=O)N(C5CCC(=O)NC5=O)C6=O)CC4)CC3)cc2)C1 (stereo partly drawn) [Compound 40]	–	7.8	–	< 1

Other lines, results leading:

DC50 (KAT2A [1]) [nM]	GI50 (MOLM-13 cells) [nM]	DC50 (KAT2B) [nM]	DC50 (KAT2A [2]) [nM]	SMILES
< 1	4.4	< 1	–	Cc1cc(N2CCC3(CCN(C(=O)c4ccc([C@H]5C[C@@H](Nc6cnn(C)c(=O)c6Cl)CN(C)C5)cc4)CC3)CC2)ccc1C1CCC(=O)NC1=O (stereo partly drawn) [Compound 223]
1 to 30	> 100	> 30	–	Cc1cc(N2CCC3(CCN(C(=O)c4ccc([C@H]5C[C@@H](Nc6cnn(C)c(=O)c6Cl)CN(C)C5)cc4)CC3)CC2)c(F)cc1C1CCC(=O)NC1=O (stereo partly drawn) [Compound 242]
< 1	5.2	1 to 30	–	COc1cc(N2CCC3(CCN(C(=O)c4ccc([C@H]5C[C@@H](Nc6cnn(C)c(=O)c6Cl)CN(C)C5)cc4)CC3)CC2)ccc1C1CCC(=O)NC1=O (stereo partly drawn) [Compound 232]
< 1	0.9	< 1	–	CN1C[C@H](Nc2cnn(C)c(=O)c2Cl)C[C@H](c2ccc(C(=O)N3CCC4(CC3)CCN(c3ccc(C5CCC(=O)NC5=O)c(F)c3)CC4)cc2)C1 (stereo partly drawn) [Compound 228, 3-[4-[3-[4-[(3R,5R)-5-[(5-chloro-1-methyl-6-oxo-pyridazin-4-yl)amino]-1-methyl-3-piperidyl]benzoyl]-3,9-diazaspiro[5.5]undecan-9-yl]-2-fluoro-phenyl]piperidine-2,6-dione]
< 1	1	< 1	< 1	CN1C[C@H](Nc2cnn(C)c(=O)c2Cl)C[C@H](c2ccc(C(=O)N3CCC4(CC3)CCN(c3ccc(C5CCC(=O)NC5=O)cc3)CC4)cc2)C1 (stereo partly drawn) [Compound 145, 3-[4-[3-[4-[(3R,5R)-5-[(5-chloro-1-methyl-6-oxo-pyridazin-4-yl)amino]-1-methyl-3-piperidyl]benzoyl]-3,9-diazaspiro[5.5]undecan-9-yl]phenyl]piperidine-2,6-dione]
< 1	5.9	< 1	< 1	CN1C[C@H](Nc2cnn(C)c(=O)c2Br)C[C@H](c2ccc(C(=O)N3CCC4(CC3)CCN(c3ccc(C5CCC(=O)NC5=O)cc3F)CC4)cc2)C1 (stereo partly drawn) [Compound 146]
< 1	0.4	< 1	–	CN1C[C@H](Nc2cnn(C)c(=O)c2Cl)C[C@H](c2ccc(C(=O)N3CCC4(CC3)CCN(c3ccc(C5CCC(=O)NC5=O)cn3)CC4)cc2)C1 (stereo partly drawn) [Compound 2-52]
< 1	3.7	< 1	–	Cc1cc(C2CCC(=O)NC2=O)ccc1N1CCC2(CCN(C(=O)c3ccc([C@H]4C[C@@H](Nc5cnn(C)c(=O)c5Cl)CN(C)C4)cc3)CC2)CC1 (stereo partly drawn) [Compound 250]
